Earlier results as cited in PMC4939794 (Biochemistry, 2015).

In the case of green fluorescent protein [GFP], the CRO maturation half-life (depending on the variant and the conditions) is given as 19 to 83 min, the folding rates (multiphasic, three to five folding rates) is given as 10 to 0.01 s^−1 and the unfolding half-life (water at neutral pH, standard temperature and pressure, estimated) is given as “greater than 1 month”.
